From patent US10597388B2, “Pyridazinone herbicides” (FMC CORPORATION, priority 2014, dated 2020)

How the values were obtained:
Test in all cases: Test E greenhouse herbicide test, pre- and postemergence
Type in all cases: in vivo
[1] = system: crabgrass, large (large crabgrass, Digitaria sanguinalis); details: Preemergence
Excerpt: (§1) Seeds of plant species selected from corn (Zea mays), soybean (Glycine max), velvetleaf (Abutilon theophrasti), lambsquarters (Chenopodium album), wild poinsettia (Euphorbia heterophylla), pigweed, palmer (palmer pigweed, Amaranthus palmeri), waterhemp (common waterhemp, Amaranthus rudis), surinam grass (Brachiaria decumbens), crabgrass, large (large crabgrass, Digitaria sanguinalis), crabgrass, Brazilian (Brazilian crabgrass, Digitaria horizontalis), panicum, fall (fall panicum, Panicum dichotomiflorum), foxtail, giant (giant foxtail, Setaria faberii), foxtail, green (green foxtail, Setaria viridis), goosegrass (Eleusine indica), johnsongrass (Sorghum halepense), ragweed (common ragweed, Ambrosia elatior), barnyardgrass (Echinochloa crus-galli), sandbur (southem sandbur, Cenchrus echinatus), arrowleaf sida (Sida rhombifolia), Italian ryegrass (Lolium multiflorum), dayflower (Virginia (VA) dayflower, Commelina virginica), field bindweed (Convolvulus arvensis), momingglory (Ipomoea coccinea), nightshade (eastern black nightshade, Solanum ptycanthum), kochia (Kochia scoparia), nutsedge, yellow (yellow nutsedge, Cyperus esculentus), horseweed (Conyza canadensis), and beggarticks (hairy beggarticks, Bidens pilosa), were planted into a silt loam soil and treated preemergence with test chemicals formulated in a non-phytotoxic solvent mixture which included a surfactant.
(§2) At the same time, plants from these crop and weed species and also waterhemp_RES1, (ALS & Triazine resistant common waterhemp, Amaranthus rudis), and waterhemp_RES2, (ALS & HPPD resistant common waterhemp, Amaranthus rudis) were planted in pots containing Redi-Earth® planting medium (Scotts Company, 14111 Scottslawn Road, Marysville, Ohio 43041) comprising spaghnum peat moss, vermiculite, wetting agent and starter nutrients were treated with postemergence applications of test chemicals formulated in the same manner. Plants ranged in height from 2 to 18 cm for postemergence treatments (1- to 4-leaf stage). Treated plants and controls were maintained in a greenhouse for 14 to 21 d, after which time all species were compared to controls and visually evaluated. Plant response ratings, summarized in Table E, are based on a scale of 0 to 100 where 0 is no effect and 100 is complete control. A dash (-) response means no test result.

[2] = system: sandbur (southem sandbur, Cenchrus echinatus)
Excerpt: as §1, §2

[3] = system: foxtail, giant (giant foxtail, Setaria faberii); details: Preemergence
Excerpt: as §1, §2

[4] = system: waterhemp (common waterhemp, Amaranthus rudis)
Excerpt: as §1, §2

[5] = system: nutsedge, yellow (yellow nutsedge, Cyperus esculentus); details: Preemergence
Excerpt: as §1, §2

[6] = system: velvetleaf (Abutilon theophrasti); details: Preemergence
Excerpt: as §1, §2

[7] = system: lambsquarters (Chenopodium album); details: Preemergence
Excerpt: as §1, §2

[8] = system: beggarticks (hairy beggarticks, Bidens pilosa)
Excerpt: as §1, §2

[9] = system: dayflower (Virginia (VA) dayflower, Commelina virginica)
Excerpt: as §1, §2

[10] = system: Italian ryegrass (Lolium multiflorum)
Excerpt: as §1, §2

[11] = system: foxtail, green (green foxtail, Setaria viridis); details: Preemergence
Excerpt: as §1, §2

[12] = system: panicum, fall (fall panicum, Panicum dichotomiflorum)
Excerpt: as §1, §2

kochia (Kochia scoparia) = system: kochia (Kochia scoparia)
Excerpt: as §1, §2

[13] = system: barnyardgrass (Echinochloa crus-galli)
Excerpt: as §1, §2

[14] = system: johnsongrass (Sorghum halepense); details: Preemergence
Excerpt: as §1, §2

[15] = system: crabgrass, Brazilian (Brazilian crabgrass, Digitaria horizontalis)
Excerpt: as §1, §2

[16] = system: ragweed (common ragweed, Ambrosia elatior)
Excerpt: as §1, §2

[17] = 62 g ai/ha, scale 0 to 100 (0 no effect, 100 complete control)
[18] = 125 g ai/ha, visual, scale 0 no effect to 100 complete control
[19] = 250 g ai/ha, visual, scale 0 no effect to 100 complete control
[20] = 62 g ai/ha, Postemergence, scale 0 to 100 (0 no effect, 100 complete control)
[21] = 62 g ai/ha, Preemergence, scale 0 to 100 (0 no effect, 100 complete control)
[22] = 125 g ai/ha, Postemergence, scale 0 to 100 (0 no effect, 100 complete control)
[23] = 125 g ai/ha, Preemergence, scale 0 to 100 (0 no effect, 100 complete control)
[24] = 250 g ai/ha, Postemergence, scale 0 to 100 (0 no effect, 100 complete control)
[25] = Postemergence, 31 g ai/ha, visual, scale 0 no effect to 100 complete control
[26] = Preemergence, 31 g ai/ha, scale 0 to 100, 0 no effect, 100 complete control
[27] = Preemergence, 250 g ai/ha, visual, scale 0 no effect to 100 complete control
[28] = 31 g ai/ha, scale 0 to 100, 0 no effect, 100 complete control
[29] = 125 g ai/ha, scale 0 to 100 (0 no effect, 100 complete control)
[30] = Preemergence, 125 g ai/ha, visual, scale 0 no effect to 100 complete control

SMILES: CC(=O)Oc1c(C)nn(C)c(=O)c1-c1c(C)sc2ccc(C)cc12 [Compound 25]
- Plant response rating, Crabgrass, Large [1, 17]: 15
- Plant response rating, Crabgrass, Large [1, 18]: 80
- Plant response rating, Crabgrass, Large [1, 19]: 85
- Plant response rating, Sandbur [2, 20]: 60
- Plant response rating, Sandbur [2, 21]: 65
- Plant response rating, Sandbur [2, 22]: 70
- Plant response rating, Sandbur [2, 23]: 80
- Plant response rating, Sandbur [2, 24]: 75
- Plant response rating, Sandbur [2, 25]: 50
- Plant response rating, Sandbur [2, 26]: 35
- Plant response rating, Sandbur [2, 27]: 85
- Plant response rating, Foxtail, Giant [3, 17]: 95
- Plant response rating, Foxtail, Giant [3, 28]: 80
- Plant response rating, Foxtail, Giant [3, 18]: 98
- Plant response rating, Foxtail, Giant [3, 19]: 100
- Plant response rating, Waterhemp [4, 20]: 80
- Plant response rating, Waterhemp [4, 21]: 100
- Plant response rating, Waterhemp [4, 22]: 85
- Plant response rating, Waterhemp [4, 23]: 100
- Plant response rating, Waterhemp [4, 24]: 90
- Plant response rating, Waterhemp [4, 25]: 80
- Plant response rating, Waterhemp [4, 26]: 100
- Plant response rating, Waterhemp [4, 27]: 100
- Plant response rating, Nutsedge, Yellow [5, 17]: 20
- Plant response rating, Nutsedge, Yellow [5, 29]: 20
- Plant response rating, Nutsedge, Yellow [5, 28]: 0
- Plant response rating, Nutsedge, Yellow [5, 19]: 65
- Plant response rating, Velvetleaf [6, 17]: 100
- Plant response rating, Velvetleaf [6, 29]: 98
- Plant response rating, Velvetleaf [6, 28]: 60
- Plant response rating, Velvetleaf [6, 19]: 100
- Plant response rating, Lambsquarters [7, 17]: 100
- Plant response rating, Lambsquarters [7, 28]: 98
- Plant response rating, Lambsquarters [7, 18]: 100
- Plant response rating, Lambsquarters [7, 19]: 100
- Plant response rating, Beggarticks [8, 20]: 100
- Plant response rating, Beggarticks [8, 21]: 100
- Plant response rating, Beggarticks [8, 22]: 100
- Plant response rating, Beggarticks [8, 24]: 100
- Plant response rating, Beggarticks [8, 25]: 100
- Plant response rating, Beggarticks [8, 26]: 100
- Plant response rating, Beggarticks [8, 30]: 100
- Plant response rating, Beggarticks [8, 27]: 100
- Plant response rating, Dayflower, VA [9, 20]: 40
- Plant response rating, Dayflower, VA [9, 21]: 5
- Plant response rating, Dayflower, VA [9, 22]: 50
- Plant response rating, Dayflower, VA [9, 24]: 65
- Plant response rating, Dayflower, VA [9, 25]: 10
- Plant response rating, Dayflower, VA [9, 26]: 0
- Plant response rating, Dayflower, VA [9, 30]: 15
- Plant response rating, Dayflower, VA [9, 27]: 30
- Plant response rating, Ryegrass, Italian [10, 20]: 80
- Plant response rating, Ryegrass, Italian [10, 21]: 95
- Plant response rating, Ryegrass, Italian [10, 22]: 85
- Plant response rating, Ryegrass, Italian [10, 23]: 98
- Plant response rating, Ryegrass, Italian [10, 24]: 90
- Plant response rating, Ryegrass, Italian [10, 25]: 75
- Plant response rating, Ryegrass, Italian [10, 26]: 95
- Plant response rating, Ryegrass, Italian [10, 27]: 100
- Plant response rating, Foxtail, Green [11, 17]: 98
- Plant response rating, Foxtail, Green [11, 28]: 65
- Plant response rating, Foxtail, Green [11, 18]: 98
- Plant response rating, Foxtail, Green [11, 19]: 100
- Plant response rating, Panicum, Fall [12, 20]: 50
- Plant response rating, Panicum, Fall [12, 21]: 100
- Plant response rating, Panicum, Fall [12, 22]: 80
- Plant response rating, Panicum, Fall [12, 23]: 100
- Plant response rating, Panicum, Fall [12, 24]: 90
- Plant response rating, Panicum, Fall [12, 25]: 50
- Plant response rating, Panicum, Fall [12, 26]: 95
- Plant response rating, Panicum, Fall [12, 27]: 100
- Plant response rating, Kochia (kochia (Kochia scoparia); [20]): 95
- Plant response rating, Kochia (kochia (Kochia scoparia); [21]): 80
- Plant response rating, Kochia (kochia (Kochia scoparia); [22]): 100
- Plant response rating, Kochia (kochia (Kochia scoparia); [24]): 98
- Plant response rating, Kochia (kochia (Kochia scoparia); [25]): 90
- Plant response rating, Kochia (kochia (Kochia scoparia); [26]): 20
- Plant response rating, Kochia (kochia (Kochia scoparia); [30]): 98
- Plant response rating, Kochia (kochia (Kochia scoparia); [27]): 100
- Plant response rating, Barnyardgrass [13, 20]: 50
- Plant response rating, Barnyardgrass [13, 21]: 60
- Plant response rating, Barnyardgrass [13, 22]: 50
- Plant response rating, Barnyardgrass [13, 24]: 50
- Plant response rating, Barnyardgrass [13, 25]: 40
- Plant response rating, Barnyardgrass [13, 26]: 20
- Plant response rating, Barnyardgrass [13, 30]: 60
- Plant response rating, Barnyardgrass [13, 27]: 90
- Plant response rating, Johnsongrass [14, 17]: 60
- Plant response rating, Johnsongrass [14, 28]: 75
- Plant response rating, Johnsongrass [14, 18]: 80
- Plant response rating, Johnsongrass [14, 19]: 90
- Plant response rating, Crabgrass, Brazil [15, 20]: 40
- Plant response rating, Crabgrass, Brazil [15, 21]: 90
- Plant response rating, Crabgrass, Brazil [15, 22]: 50
- Plant response rating, Crabgrass, Brazil [15, 24]: 50
- Plant response rating, Crabgrass, Brazil [15, 25]: 30
- Plant response rating, Crabgrass, Brazil [15, 26]: 75
- Plant response rating, Crabgrass, Brazil [15, 30]: 95
- Plant response rating, Crabgrass, Brazil [15, 27]: 95
- Plant response rating, Ragweed [16, 20]: 90
- Plant response rating, Ragweed [16, 21]: 95
- Plant response rating, Ragweed [16, 22]: 90
- Plant response rating, Ragweed [16, 23]: 98
- Plant response rating, Ragweed [16, 24]: 95
- Plant response rating, Ragweed [16, 25]: 90
- Plant response rating, Ragweed [16, 26]: 75
- Plant response rating, Ragweed [16, 27]: 100
